# Source: the supplement of paper PMC10307832
# What was measured:
# Experiment in all cases: relative viability (nuclei count vs DMSO), 5 days (fraction); higher = more cells survive
# [1] = test system: NCI-H1650
# Summary of the method: (§1)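 Lung cancer cell lines, seeded in 1536-well plates, were treated the following day by pin tool with a single drug or with five library-drug doses (not always all listed) in √10 steps on top of a fixed anchor-drug dose. Cells were fixed and nuclei stained in one step after 5 days, and nuclei were counted. Relative viability is the nuclei count for treated wells divided by that for vehicle wells, reported as medians of duplicate plates.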
# [2] = test system: EKVX
# Summary of the method: as §1
# [3] = test system: BEN
# Summary of the method: as §1
# [4] = test system: HARA
# Summary of the method: as §1
# [5] = test system: NCI-H441
# Summary of the method: as §1
# [6] = test system: NCI-H838
# Summary of the method: as §1
# [7] = test system: A-427
# Summary of the method: as §1
# [8] = test system: NCI-H1792
# Summary of the method: as §1
# [9] = test system: HCC-44
# Summary of the method: as §1
# [10] = test system: NCI-H596
# Summary of the method: as §1
# [11] = test system: SK-MES-1
# Summary of the method: as §1
# [12] = test system: NCI-H1437
# Summary of the method: as §1
# [13] = test system: NCI-H23
# Summary of the method: as §1
# [14] = test system: COR-L23
# Summary of the method: as §1
# [15] = test system: HCC-15
# Summary of the method: as §1
# [16] = test system: 201T
# Summary of the method: as §1
# [17] = test system: NCI-H1975
# Summary of the method: as §1
# [18] = test system: HCC-827
# Summary of the method: as §1
smiles,measurement,setting,value
Nc1ccn([C@@H]2O[C@H](CO)[C@@H](O)[C@@H]2O)c(=O)n1 [Cytarabine] + CC1(C)CCC(c2ccc(Cl)cc2)=C(CN2CCN(c3ccc(C(=O)NS(=O)(=O)c4ccc(N[C@H](CCN5CCOCC5)CSc5ccccc5)c(S(=O)(=O)C(F)(F)F)c4)cc3)CC2)C1 [Navitoclax] (partner 0.5 µM),relative viability,[1]; first compound 0.005 µM,1.11
same,relative viability,[1]; first compound 0.01581 µM,1.24
same,relative viability,[1]; first compound 0.05 µM,0.616
same,relative viability,[1]; first compound 0.1581 µM,0.355
same,relative viability,[1]; first compound 0.5 µM,0.18
same,relative viability,[2]; first compound 0.005 µM,0.936
same,relative viability,[2]; first compound 0.01581 µM,0.933
same,relative viability,[2]; first compound 0.05 µM,0.664
same,relative viability,[2]; first compound 0.1581 µM,0.298
same,relative viability,[2]; first compound 0.5 µM,0.198
same,relative viability,[3]; first compound 0.005 µM,0.059
same,relative viability,[3]; first compound 0.01581 µM,0.0619
same,relative viability,[3]; first compound 0.05 µM,0.159
same,relative viability,[3]; first compound 0.1581 µM,0.0433
same,relative viability,[3]; first compound 0.5 µM,0.0457
same,relative viability,[4]; first compound 0.005 µM,1.09
same,relative viability,[4]; first compound 0.01581 µM,0.593
same,relative viability,[4]; first compound 0.05 µM,0.302
same,relative viability,[4]; first compound 0.1581 µM,0.178
same,relative viability,[4]; first compound 0.5 µM,0.131
same,relative viability,[5]; first compound 0.005 µM,0.547
same,relative viability,[5]; first compound 0.01581 µM,0.648
same,relative viability,[5]; first compound 0.05 µM,0.556
same,relative viability,[5]; first compound 0.1581 µM,0.176
same,relative viability,[5]; first compound 0.5 µM,0.161
same,relative viability,[6]; first compound 0.005 µM,1.29
same,relative viability,[6]; first compound 0.01581 µM,1.18
same,relative viability,[6]; first compound 0.05 µM,0.816
same,relative viability,[6]; first compound 0.1581 µM,0.446
same,relative viability,[6]; first compound 0.5 µM,0.262
same,relative viability,[7]; first compound 0.005 µM,0.813
same,relative viability,[7]; first compound 0.01581 µM,0.496
same,relative viability,[7]; first compound 0.05 µM,0.257
same,relative viability,[7]; first compound 0.1581 µM,0.154
same,relative viability,[7]; first compound 0.5 µM,0.16
same,relative viability,[8]; first compound 0.005 µM,0.339
same,relative viability,[8]; first compound 0.01581 µM,0.55
same,relative viability,[8]; first compound 0.05 µM,0.223
same,relative viability,[8]; first compound 0.1581 µM,0.304
same,relative viability,[8]; first compound 0.5 µM,0.246
same,relative viability,[9]; first compound 0.005 µM,0.949
same,relative viability,[9]; first compound 0.01581 µM,1.01
same,relative viability,[9]; first compound 0.05 µM,0.534
same,relative viability,[9]; first compound 0.1581 µM,0.563
same,relative viability,[9]; first compound 0.5 µM,0.26
same,relative viability,[10]; first compound 0.005 µM,0.874
same,relative viability,[10]; first compound 0.01581 µM,0.894
same,relative viability,[10]; first compound 0.05 µM,0.611
same,relative viability,[10]; first compound 0.1581 µM,0.558
same,relative viability,[10]; first compound 0.5 µM,0.413
same,relative viability,[11]; first compound 0.005 µM,0.957
same,relative viability,[11]; first compound 0.01581 µM,0.869
same,relative viability,[11]; first compound 0.05 µM,0.408
same,relative viability,[11]; first compound 0.1581 µM,0.22
same,relative viability,[11]; first compound 0.5 µM,0.178
same,relative viability,[12]; first compound 0.005 µM,0.875
same,relative viability,[12]; first compound 0.01581 µM,0.637
same,relative viability,[12]; first compound 0.05 µM,0.469
same,relative viability,[12]; first compound 0.1581 µM,0.214
same,relative viability,[12]; first compound 0.5 µM,0.175
same,relative viability,[13]; first compound 0.005 µM,0.753
same,relative viability,[13]; first compound 0.01581 µM,0.551
same,relative viability,[13]; first compound 0.05 µM,0.394
same,relative viability,[13]; first compound 0.1581 µM,0.206
same,relative viability,[13]; first compound 0.5 µM,0.173
same,relative viability,[14]; first compound 0.005 µM,0.944
same,relative viability,[14]; first compound 0.01581 µM,0.842
same,relative viability,[14]; first compound 0.05 µM,0.555
same,relative viability,[14]; first compound 0.1581 µM,0.168
same,relative viability,[14]; first compound 0.5 µM,0.129
same,relative viability,[15]; first compound 0.005 µM,0.669
same,relative viability,[15]; first compound 0.01581 µM,0.733
same,relative viability,[15]; first compound 0.05 µM,0.609
same,relative viability,[15]; first compound 0.1581 µM,0.562
same,relative viability,[15]; first compound 0.5 µM,0.43
same,relative viability,[16]; first compound 0.005 µM,1.24
same,relative viability,[16]; first compound 0.01581 µM,1.28
same,relative viability,[16]; first compound 0.05 µM,1.19
same,relative viability,[16]; first compound 0.1581 µM,1.16
same,relative viability,[16]; first compound 0.5 µM,1.14
same,relative viability,[17]; first compound 0.005 µM,0.944
same,relative viability,[17]; first compound 0.01581 µM,1.26
same,relative viability,[17]; first compound 0.05 µM,1.1
same,relative viability,[17]; first compound 0.1581 µM,0.567
same,relative viability,[17]; first compound 0.5 µM,0.359
same,relative viability,[18]; first compound 0.005 µM,0.615
same,relative viability,[18]; first compound 0.01581 µM,0.529
same,relative viability,[18]; first compound 0.05 µM,0.398
same,relative viability,[18]; first compound 0.1581 µM,0.264
same,relative viability,[18]; first compound 0.5 µM,0.252
